Reference: the supplement of paper PMC10307832

Assays:
Test in all cases: relative viability (nuclei count vs DMSO), 5 days (fraction); higher = more cells survive
NCI-H596 = system: NCI-H596
Method in brief: (§1)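 Values are medians from duplicate plates. Each reflects relative viability, defined as the nuclei count of treated wells over that of vehicle wells. Lung cancer cell lines in 1536-well plates were pin-tool dosed one day after seeding with one drug alone or with a fixed anchor-drug dose plus five library-drug doses (not always all listed) in √10 steps, then fixed, stained and imaged at 4× after 5 days.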

NCI-H1623 = system: NCI-H1623
Method in brief: as §1

NCI-H1666 = system: NCI-H1666
Method in brief: as §1

NCI-H661 = system: NCI-H661
Method in brief: as §1

NCI-H1944 = system: NCI-H1944
Method in brief: as §1

SK-LU-1 = system: SK-LU-1
Method in brief: as §1

PC-14 = system: PC-14
Method in brief: as §1

SMILES | relative viability (NCI-H596; first compound 0.001 µM) | relative viability (NCI-H596; first compound 0.003162 µM) | relative viability (NCI-H596; first compound 0.01 µM) | relative viability (NCI-H596; first compound 0.03162 µM) | relative viability (NCI-H596; first compound 0.1 µM) | relative viability (NCI-H1623; first compound 0.001 µM) | relative viability (NCI-H1623; first compound 0.003162 µM) | relative viability (NCI-H1623; first compound 0.01 µM) | relative viability (NCI-H1623; first compound 0.03162 µM) | relative viability (NCI-H1623; first compound 0.1 µM) | relative viability (NCI-H1666; first compound 0.001 µM) | relative viability (NCI-H1666; first compound 0.003162 µM) | relative viability (NCI-H1666; first compound 0.01 µM) | relative viability (NCI-H1666; first compound 0.03162 µM) | relative viability (NCI-H1666; first compound 0.1 µM) | relative viability (NCI-H661; first compound 0.001 µM) | relative viability (NCI-H661; first compound 0.003162 µM) | relative viability (NCI-H661; first compound 0.03162 µM) | relative viability (NCI-H661; first compound 0.1 µM) | relative viability (NCI-H1944; first compound 0.001 µM) | relative viability (NCI-H1944; first compound 0.003162 µM) | relative viability (NCI-H1944; first compound 0.01 µM) | relative viability (NCI-H1944; first compound 0.03162 µM) | relative viability (SK-LU-1; first compound 0.001 µM) | relative viability (SK-LU-1; first compound 0.003162 µM) | relative viability (SK-LU-1; first compound 0.03162 µM) | relative viability (SK-LU-1; first compound 0.1 µM) | relative viability (PC-14; first compound 0.001 µM) | relative viability (PC-14; first compound 0.003162 µM) | relative viability (PC-14; first compound 0.01 µM) | relative viability (PC-14; first compound 0.03162 µM) | relative viability (PC-14; first compound 0.1 µM) | relative viability (NCI-H661; first compound 0.01 µM) | relative viability (SK-LU-1; first compound 0.01 µM)
Cc1cn(-c2cc(NC(=O)c3ccc(C)c(Nc4nccc(-c5cccnc5)n4)c3)cc(C(F)(F)F)c2)cn1 [Nilotinib] + CCNC(=O)c1noc(-c2cc(C(C)C)c(O)cc2O)c1-c1ccc(CN2CCOCC2)cc1 [Luminespib] (partner 0.01 µM) | 1.16 | 1.05 | 1.01 | 0.655 | 0.833 | 0.43 | 0.516 | 0.63 | 0.498 | 0.544 | 1.02 | 1.01 | 1.1 | 0.999 | 1.17 | 1.01 | 0.961 | 1.01 | 0.832 | 0.627 | 0.669 | 0.669 | 0.694 | 0.19 | 0.212 | 0.215 | 0.217 | 0.168 | 0.152 | 0.138 | 0.123 | 0.153 |  | 
Cc1cn(-c2cc(NC(=O)c3ccc(C)c(Nc4nccc(-c5cccnc5)n4)c3)cc(C(F)(F)F)c2)cn1 [Nilotinib] + Cc1nc(Nc2ncc(C(=O)Nc3c(C)cccc3Cl)s2)cc(N2CCN(CCO)CC2)n1 [Dasatinib] (partner 0.075 µM) | 0.485 | 0.705 | 0.507 | 0.504 | 0.349 | 0.597 | 0.531 | 0.601 | 0.508 | 0.408 | 0.783 | 0.886 | 0.797 | 0.719 | 0.778 | 0.923 | 0.956 | 0.635 | 0.613 | 0.228 | 0.206 | 0.217 | 0.241 | 0.196 | 0.146 | 0.177 | 0.177 | 0.226 | 0.254 | 0.198 | 0.16 | 0.0622 | 0.921 | 0.21
